The record followed here is patent publication US20140163012A1, “PYRIDO-/AZEPINO-BENZOFURAN AND PYRIDO-/AZEPINO-BENZOTHIOPHENE MCH-1 ANTAGONISTS, METHODS OF MAKING, AND USE THEREOF” (Albany Molecular Research, Inc., priority 2012, published 2014).

Structures can show the parent of a compound that is named as a salt.

For one assay, the target named is human MCH-1 receptor (Homo sapiens, UniProt Q99705). Nature of the assay: Binding assay for human melanin-concentrating hormone (MCH-1) receptor, radioligand displacement on CHO-K1 cell membranes.
Chain of human MCH-1 receptor (Q99705 whole entry): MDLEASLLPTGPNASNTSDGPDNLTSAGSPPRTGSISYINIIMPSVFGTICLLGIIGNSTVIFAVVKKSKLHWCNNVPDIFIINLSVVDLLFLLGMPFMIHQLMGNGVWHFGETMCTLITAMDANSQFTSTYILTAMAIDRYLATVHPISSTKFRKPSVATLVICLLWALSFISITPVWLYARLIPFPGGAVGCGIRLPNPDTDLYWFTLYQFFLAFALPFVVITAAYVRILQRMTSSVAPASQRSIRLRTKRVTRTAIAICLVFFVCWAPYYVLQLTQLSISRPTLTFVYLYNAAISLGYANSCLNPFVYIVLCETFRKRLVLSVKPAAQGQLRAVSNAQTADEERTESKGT
Conditions: not given
Compound `CN1CCCc2oc3cc(-n4ccc(OCc5cccc(C(F)(F)F)n5)cc4=O)ccc3c2C1` [Example 49, 1-(2-Methyl-2,3,4,5-tetrahydro-1H-benzofuro[3,2-c]azepin-8-yl)-4-((6-(trifluoromethyl)pyridin-2-yl)methoxy)pyridin-2(1H)-one hydrochloride] yielded a Ki of 22 nM. In other words, the double-digit nanomolar range. On the same count and under the same terms, as for `CC(=O)N1CCc2c(sc3cc(-n4ccc(OCc5ccc(F)cn5)cc4=O)ccc23)C1` [Example 53, 1-(2-Acetyl-1,2,3,4-tetrahydrobenzothieno[2,3-c]pyridin-7-yl)-4-((5-fluoropyridin-2-yl)methoxy)pyridin-2(1H)-one], the figure is 39 nM; as for `O=c1cc(OCc2ccc(F)cn2)ccn1-c1ccc2c3c(sc2c1)CCNC3` [Example 55, 4-((5-Fluoropyridin-2-yl)methoxy)-1-(1,2,3,4-tetrahydrobenzothieno[3,2-c]pyridin-7-yl)pyridin-2(1H)-one hydrochloride], 2.7 nM. On the same count and under the same terms, next, `CCN1CCc2c(sc3cc(-n4ccc(OCc5ccc(F)cn5)cc4=O)ccc23)C1` [Example 56, 1-(2-Ethyl-1,2,3,4-tetrahydrobenzothieno[2,3-c]pyridin-7-yl)-4-((5-fluoropyridin-2-yl)methoxy)pyridin-2(1H)-one hydrochloride]: 9.5 nM; `CC(C)N1CCc2c(sc3cc(-n4ccc(OCc5ccc(F)cn5)cc4=O)ccc23)C1` [Example 57, 4-((5-Fluoropyridin-2-yl)methoxy)-1-(2-isopropyl-1,2,3,4-tetrahydrobenzothieno[2,3-c]pyridin-7-yl)pyridin-2(1H)-one hydrochloride]: 11 nM. The same measure, in the same setting: as for `CN1CCc2c(sc3cc(-n4ccc(OCc5ccc(F)cn5)cc4=O)ccc23)C1` [Example 58, 4-((5-Fluoropyridin-2-yl)methoxy)-1-(2-methyl-1,2,3,4-tetrahydrobenzothieno[2,3-c]pyridin-7-yl)pyridin-2(1H)-one hydrochloride], the figure is 6.2 nM; as for `O=c1cc(OCc2ccc(F)cn2)ccn1-c1ccc2c3c(sc2c1)CN(CCF)CC3` [Example 59, 1-(2-(2-Fluoroethyl)-1,2,3,4-tetrahydrobenzothieno[2,3-c]pyridin-7-yl)-4-((5-fluoropyridin-2-yl)methoxy)pyridin-2(1H)-one hydrochloride], 36 nM; as for `O=C1CN(CCc2ccc(F)cn2)CCN1c1ccc2c3c(sc2c1)CNCC3` [Example 60, 4-(2-(5-Fluoropyridin-2-yl)ethyl)-1-(1,2,3,4-tetrahydrobenzothieno[2,3-c]pyridin-7-yl)piperazin-2-one hydrochloride], 118 nM. With `O=c1cc(OCc2ccc(F)cn2)cnn1-c1ccc2c3c(sc2c1)CNCC3` [Example 61, 5-((5-Fluoropyridin-2-yl)methoxy)-2-(1,2,3,4-tetrahydrobenzothieno[2,3-c]pyridin-7-yl)pyridazin-3(2H)-one], the Ki was 34 nM. In turn, `Cc1ccc(COc2ccn(-c3ccc4c5c(sc4c3)CNCC5)c(=O)c2)cn1` [Example 62, 4-((6-Methylpyridin-3-yl)methoxy)-1-(1,2,3,4-tetrahydrobenzothieno[2,3-c]pyridin-7-yl)pyridin-2(1H)-one hydrochloride] displayed a Ki of 103 nM. Same read-out and setting: next, `O=C1CN(CCc2ccc(Cl)cc2)CCN1c1ccc2c3c(sc2c1)CNCC3` [Example 63, 4-(4-Chlorophenethyl)-1-(1,2,3,4-tetrahydrobenzothieno[2,3-c]pyridin-7-yl)piperazin-2-one hydrochloride]: 33 nM; `O=c1cc(OCc2ccc(C(F)(F)F)nc2)ccn1-c1ccc2c3c(sc2c1)CNCC3` [Example 64, 1-(1,2,3,4-Tetrahydrobenzothieno[2,3-c]pyridin-7-yl)-4-((6-(trifluoromethyl)pyridin-3-yl)methoxy)pyridin-2(1H)-one hydrochloride]: 48 nM. `O=c1cc(OCc2ccc(F)cn2)ccn1-c1ccc2c3c(oc2c1)CCN(CCF)C3` [Example 72, 1-(2-(2-Fluoroethyl)-1,2,3,4-tetrahydrobenzofuro[3,2-c]pyridin-7-yl)-4-((5-fluoropyridin-2-yl)methoxy)pyridin-2(1H)-one hydrochloride] had a Ki of 29 nM. Regarding `O=c1cc(OCc2ccccc2)ccn1-c1ccc2c3c(oc2c1)CCN1CCCC31` (centres unmarked) [Example 73, 4-(Benzyloxy)-1-(1,2,3,5,6,11c-hexahydrobenzofuro[2,3-g]indolizin-9-yl)pyridin-2(1H)-one hydrochloride], the Ki was 5.5 nM. This Ki lies about 5.3-fold lower than the previous one.

`O=c1cc(OCc2ccccc2)ccn1-c1ccc2oc3c(c2c1)CNCC3` [Example 74, 4-(Benzyloxy)-1-(1,2,3,4-tetrahydrobenzofuro[3,2-c]pyridin-8-yl)pyridin-2(1H)-one hydrochloride] displayed a Ki of 373 nM. This Ki lies about 68-fold higher than the previous one.

With `O=c1cc(OCc2ccccc2)ccn1-c1ccc2oc3c(c2c1)CCNCC3` [Example 77, 4-(Benzyloxy)-1-(2,3,4,5-tetrahydro-1H-benzofuro[2,3-d]azepin-9-yl)pyridin-2(1H)-one hydrochloride], the Ki was 44 nM. The same measure, in the same setting: as for `O=c1cc(OCc2ccc(F)cn2)ccn1-c1ccc2oc3c(c2c1)CCNCC3` [Example 79, 4-((5-Fluoropyridin-2-yl)methoxy)-1-(2,3,4,5-tetrahydro-1H-benzofuro[2,3-d]azepin-9-yl)pyridin-2(1H)-one hydrochloride], the figure is 78 nM; as for `O=c1cc(OCc2ccc(F)cn2)ccn1-c1ccc2c3c(oc2c1)CCN1CCCC31` (centres unmarked) [Example 80, 4-((5-Fluoropyridin-2-yl)methoxy)-1-(1,2,3,5,6,11c-hexahydrobenzofuro[2,3-g]indolizin-9-yl)pyridin-2(1H)-one hydrochloride], 8.3 nM.

`CC(C)N1CCCc2oc3cc(-n4ccc(OCc5cccc(C(F)(F)F)n5)cc4=O)ccc3c2C1` [Example 81, 1-(2-Isopropyl-2,3,4,5-tetrahydro-1H-benzofuro[3,2-c]azepin-8-yl)-4-((6-(trifluoromethyl)pyridin-2-yl)methoxy)pyridin-2(1H)-one hydrochloride] had a Ki of 62 nM. Still for that read-out and setting: as for `CN1CCCc2oc3cc(-n4ccc(-c5ccc(C(F)(F)F)cc5)cc4=O)ccc3c2C1` [Example 82, 1-(2-Methyl-2,3,4,5-tetrahydro-1H-benzofuro[3,2-c]azepin-8-yl)-4-(4-(trifluoromethyl)phenyl)pyridin-2(1H)-one hydrochloride], the figure is 8.2 nM; as for `O=C1CN(CCc2ccc(F)cn2)CCN1c1ccc2c3c(oc2c1)CCCNC3` [Example 83, 4-(2-(5-Fluoropyridin-2-yl)ethyl)-1-(2,3,4,5-tetrahydro-1H-benzofuro[3,2-c]azepin-8-yl)piperazin-2-one hydrochloride], 52 nM; as for `CN1CCc2oc3cc(-n4ccc(OCc5ccc(C(F)(F)F)nc5)cc4=O)ccc3c2CC1` [Example 84, 1-(3-Methyl-2,3,4,5-tetrahydro-1H-benzofuro[2,3-d]azepin-8-yl)-4-((6-(trifluoromethyl)pyridin-3-yl)methoxy)pyridin-2(1H)-one hydrochloride], 29 nM. On to `Cc1ccc(COc2ccn(-c3ccc4c5c(oc4c3)CCCN(C)C5)c(=O)c2)cn1` [Example 85, 1-(2-Methyl-2,3,4,5-tetrahydro-1H-benzofuro[3,2-c]azepin-8-yl)-4-((6-methylpyridin-3-yl)methoxy)pyridin-2(1H)-one hydrochloride], for which affinity was put at a Ki of 116 nM.

In turn, `CN1CCCc2oc3cc(-n4ccc(OCc5ccc(C(F)(F)F)nc5)cc4=O)ccc3c2C1` [Example 86, 1-(2-Methyl-2,3,4,5-tetrahydro-1H-benzofuro[3,2-c]azepin-8-yl)-4-((6-(trifluoromethyl)pyridin-3-yl)methoxy)pyridin-2(1H)-one hydrochloride] had a Ki of 53 nM.

In the case of `O=C1CN(CCc2ccc(Cl)cc2)CCN1c1ccc2c3c(oc2c1)CCNC3` [Example 87, 4-(4-Chlorophenethyl)-1-(1,2,3,4-tetrahydrobenzofuro[3,2-c]pyridin-7-yl)piperazin-2-one hydrochloride], the Ki turned out to be 58 nM. The Ki values of the last two compounds are within 1.5-fold of each other. Same read-out and setting: next, `O=C1CN(CCc2ccc(Cl)cc2)CCN1c1ccc2c3c(oc2c1)CCCNC3` [Example 89, 4-(4-Chlorophenethyl)-1-(2,3,4,5-tetrahydro-1H-benzofuro[3,2-c]azepin-8-yl)piperazin-2-one hydrochloride]: 17 nM; `O=C1CN(CCc2ccc(Cl)cn2)CCN1c1ccc2c3c(oc2c1)CCCNC3` [Example 90, 4-(2-(5-Chloropyridin-2-yl)ethyl)-1-(2,3,4,5-tetrahydro-1H-benzofuro[3,2-c]azepin-8-yl)piperazin-2-one hydrochloride]: 19 nM; `O=c1cc(OCc2ccccc2)ccn1-c1ccc2c3c(oc2c1)CCN(CCF)C3` [Example 92, 4-(Benzyloxy)-1-(2-(2-fluoroethyl)-1,2,3,4-tetrahydrobenzofuro[3,2-c]pyridin-7-yl)pyridin-2(1H)-one hydrochloride]: 25 nM.

The same assay, now with this note: read-out: MCH1 % inhibition @ 1 uM.
`O=C1NCCc2c1sc1cc(-n3ccc(OCc4ccc(F)cn4)cc3=O)ccc21` [Example 54, 7-(4-((5-Fluoropyridin-2-yl)methoxy)-2-oxopyridin-1(2H)-yl)-3,4-dihydrobenzothieno[2,3-c]pyridin-1(2H)-one]: the inhibition at 1 µM is 60%. Same read-out and setting: next, `O=c1cc(OCc2ccc(F)cn2)ccn1-c1ccc2oc3c(c2c1)CNCCC3` [Example 75, 4-((5-Fluoropyridin-2-yl)methoxy)-1-(2,3,4,5-tetrahydro-1H-benzofuro[3,2-c]azepin-9-yl)pyridin-2(1H)-one hydrochloride]: 34%.

Regarding `O=c1cc(OCc2ccc(F)cn2)ccn1-c1ccc2oc3c(c2c1)CNCC3` [Example 76, 4-((5-Fluoropyridin-2-yl)methoxy)-1-(1,2,3,4-tetrahydrobenzofuro[3,2-c]pyridin-8-yl)pyridin-2(1H)-one hydrochloride], the inhibition at 1 µM worked out at 35%. Consider `O=c1cc(OCc2ccccc2)ccn1-c1ccc2oc3c(c2c1)CNCCC3` [Example 78, 4-(Benzyloxy)-1-(2,3,4,5-tetrahydro-1H-benzofuro[3,2-c]azepin-9-yl)pyridin-2(1H)-one hydrochloride], for which the inhibition at 1 µM stood at 35%.
